Here are results for four compounds from ChEMBL document CHEMBL5360545, “Multitargeted drug design strategy for discovery of short-peptide-based HIV-1 entry inhibitors with high potency” (Eur J Med Chem, 2023).

Active and inactive are the calls of the source. The rule behind the calls is not given here. Side chains are listed from the residue outwards. Peptide text beside a SMILES is read from it. * marks the point of attachment. X2 = CC(=O)N1CCC(C(=O)N(CCCN2C3CCC2CC(NS(=O)(=O)c2ccc(C(=O)*)cc2)C3)c2ccc(C)c(Cl)c2)CC1; X1 = CC(=O)N1CCC(C(=O)N(CCCN2CCC(Cc3ccc(C(=O)*)cc3)CC2)c2ccc(C)c(Cl)c2)CC1; PEG12 = NCCOCCOCCOCCOCCOCCOCCOCCOCCOCCOCCOCCOCCC(=O)O

Data set [1] deals with Human immunodeficiency virus 1. In words: Antiviral activity against HIV-1 Bal-R5 infected in human CEMx174 5.25M7 cells assessed as reduction in p24 antigen level measured after 4 days by ELISA. The note with it: Human immunodeficiency virus 1, Bal-R5, CEMx174 5.25M7, 96 h. It counts as functional, organism-based.
Data set [2] relates to Human immunodeficiency virus 1. In words: Antiviral activity against HIV-1 clinical isolate R5-91US-4 infected in human CEMx174 5.25M7 cells assessed as reduction in p24 antigen level measured after 4 days by ELISA. It counts as functional, organism-based. The note with it: Human immunodeficiency virus 1, clinical isolate R5-91US-4, CEMx174 5.25M7, 96 h. A general note: ELISA stands for enzyme-linked immunosorbent assay.

The subject of data set [3] is Human immunodeficiency virus 1. Description: Antiviral activity against HIV-1 clinical isolate R5-J32228M4 infected in human CEMx174 5.25M7 cells assessed as reduction in p24 antigen level measured after 4 days by ELISA. It counts as functional, organism-based. Conditions: Human immunodeficiency virus 1, clinical isolate R5-J32228M4, CEMx174 5.25M7, 96 h.
Data set [4] concerns Human immunodeficiency virus 1. In words: Antiviral activity against HIV-1 clinical isolate X4-92UG024 infected in human CEMx174 5.25M7 cells assessed as reduction in p24 antigen level measured after 4 days by ELISA. It counts as functional, organism-based. Conditions: Human immunodeficiency virus 1, clinical isolate X4-92UG024, CEMx174 5.25M7, 96 h.
Data set [5] has as its system Human immunodeficiency virus 1. Description: Antiviral activity against HIV-1 clinical isolate X4-89BZ167 infected in human CEMx174 5.25M7 cells assessed as reduction in p24 antigen level measured after 4 days by ELISA. It counts as functional, organism-based. Conditions: Human immunodeficiency virus 1, clinical isolate X4-89BZ167, CEMx174 5.25M7, 96 h.
The subject of data set [6] is Human immunodeficiency virus 1. Description: Antiviral activity against HIV-1 clinical isolate 97 TH-NP1525 infected in human CEMx174 5.25M7 cells assessed as reduction in p24 antigen level measured after 4 days by ELISA. Conditions: Human immunodeficiency virus 1, clinical isolate 97 TH-NP1525, CEMx174 5.25M7, 96 h. It counts as functional, organism-based.
The target in data set [7] is Envelope glycoprotein gp160 (Human immunodeficiency virus 1) (UniProt Q72502). Description: Binding affinity to HIV1 GP41 using GP41 NHR derived N39 peptide assessed as melting temperature incubated for 30 mins by circular dichroism spectroscopy. (In general: Circular dichroism is the unequal absorption of left and right circularly polarised light.)
The target is the same in data set [8]. Description: Binding affinity to HIV1 GP41 using GP41 NHR derived N39 peptide at 100 uM incubated for 30 mins by PAGE gel electrophoresis analysis.
The target is the same in data set [9]. Description: Binding affinity to HIV1 GP41 using GP41 NHR derived N39 peptide assessed as binding constant by isothermal titration calorimetry. In general terms: Isothermal titration calorimetry measures the heat released or taken up as one component is titrated into another.
Data set [10] has the same target. Description: Binding affinity to HIV1 GP41 using GP41 NHR derived N39 peptide assessed as change in enthalpy by isothermal titration calorimetry.
Data set [11] has the same target. Description: Binding affinity to HIV1 GP41 using GP41 NHR derived N39 peptide assessed as change in entropy by isothermal titration calorimetry.
Data set [12] concerns the target C-C chemokine receptor type 5 (Homo sapiens, UniProt P51681). Description: Antagonist activity at CCR5 (unknown origin) expressed in HEK293 cells co-expressing Galpha16 assessed as intracellular calcium change incubated for 60 mins by Fluo-4 AM calcium flux based FLIPR assay. It counts as functional, cell-based.
Data set [13] is described as follows: Proteolytic stability in rat liver assessed as parent compound remaining incubated for 4 hrs by RP-UHPLC analysis. Conditions: read-out: Stability. It counts as ADME, tissue-based.
Data set [14] in a line: Proteolytic stability in rat kidney incubated upto 240 mins by RP-UHPLC analysis. It counts as ADME, tissue-based. The note with it: 4 h.
A short description of data set [15]: Proteolytic stability in rat plasma assessed as parent compound remaining incubated for 4 hrs by RP-UHPLC analysis. It counts as ADME, cell-free. The note with it: read-out: Stability.

C-C chemokine receptor type 5, sequence (P51681 whole entry): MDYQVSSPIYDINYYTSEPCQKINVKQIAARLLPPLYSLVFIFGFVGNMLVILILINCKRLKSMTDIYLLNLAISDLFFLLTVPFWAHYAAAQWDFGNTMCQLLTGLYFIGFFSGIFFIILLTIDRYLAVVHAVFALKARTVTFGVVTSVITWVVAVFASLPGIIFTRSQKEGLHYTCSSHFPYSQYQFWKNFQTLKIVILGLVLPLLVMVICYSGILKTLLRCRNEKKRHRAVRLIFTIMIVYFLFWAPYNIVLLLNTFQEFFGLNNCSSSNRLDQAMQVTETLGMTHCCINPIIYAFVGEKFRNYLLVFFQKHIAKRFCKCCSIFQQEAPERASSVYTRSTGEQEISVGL

What is called EC50 is the concentration that produces a half-maximal response. One may read the IC50 as the concentration at which inhibition is half-maximal. For `CC[C@H](C)[C@H](NC(C)=O)C(=O)N[C@@H](CCC(=O)O)C(=O)N[C@@H](CCC(=O)O)C(=O)N[C@@H](CC(C)C)C(=O)N[C@H](C(=O)N[C@@H](CCCNC(=N)N)C(=O)N[C@@H](C)C(=O)N[C@@H](C)C(=O)N[C@@H](CCC(N)=O)C(=O)N[C@@H](CCC(=O)O)C(=O)N[C@@H](CCC(N)=O)C(=O)N[C@@H](CCC(N)=O)C(=O)N[C@@H](CCCNC(=N)N)C(=O)N[C@@H](CCCCN)C(=O)N[C@@H](CC(N)=O)C(=O)N[C@@H](CCC(=O)O)C(=O)N[C@@H](CCC(=O)O)C(=O)N[C@@H](C)C(=O)N[C@@H](CC(C)C)C(=O)N[C@@H](CCCNC(=N)N)C(=O)N[C@@H](CCC(=O)O)C(=O)N[C@@H](CC(C)C)C(=O)N[C@@H](CCCCNC(=O)CCOCCOCCOCCOCCOCCOCCOCCOCCOCCOCCOCCOCCNC(=O)c1ccc(CC2CCN(CCCN(C(=O)C3CCN(C(C)=O)CC3)c3ccc(C)c(Cl)c3)CC2)cc1)C(N)=O)[C@@H](C)CC` (Ac-IEELIRAAQEQQRKNEEALRELK([PEG12-X1])-NH2), the EC50 in data set [1] stood at 0.09 nM; in data set [2] it was 1.79 nM; in [3], 16.2 nM; in [4], 1.21 nM; in data set [5], 2.75 nM; in [6], 0.33 nM. For the same compound, the Tm in [7] came to 56 °C. In [8], the result was Active. The K in data set [9] is 2.1 10^5/M. In addition, the deltaH in data set [10] is -1.4 10^4cal/mol. Further, in [11], the deltaS was -23.2 cal/mol/deg. The IC50 in [12] turned out to be 19.2 nM. Further, the remaining at 4 h in data set [13] was over 72%; in data set [15] it was 100%. Further, the Stability result in [14] is “Stable”.
`CC[C@H](C)[C@H](NC(C)=O)C(=O)N[C@@H](CCC(=O)O)C(=O)N[C@@H](CCC(=O)O)C(=O)N[C@@H](CC(C)C)C(=O)N[C@H](C(=O)N[C@@H](CCCNC(=N)N)C(=O)N[C@@H](C)C(=O)N[C@@H](C)C(=O)N[C@@H](CCC(N)=O)C(=O)N[C@@H](CCC(=O)O)C(=O)N[C@@H](CCC(N)=O)C(=O)N[C@@H](CCC(N)=O)C(=O)N[C@@H](CCCNC(=N)N)C(=O)N[C@@H](CCCCN)C(=O)N[C@@H](CC(N)=O)C(=O)N[C@@H](CCC(=O)O)C(=O)N[C@@H](CCC(=O)O)C(=O)N[C@@H](C)C(=O)N[C@@H](CC(C)C)C(=O)N[C@@H](CCCNC(=N)N)C(=O)N[C@@H](CCC(=O)O)C(=O)N[C@@H](CC(C)C)C(=O)N[C@@H](CCCCNC(=O)CCOCCOCCOCCOCCOCCOCCOCCOCCOCCOCCOCCOCCNC(=O)c1ccc(S(=O)(=O)NC2CC3CCC(C2)N3CCCN(C(=O)C2CCN(C(C)=O)CC2)c2ccc(C)c(Cl)c2)cc1)C(N)=O)[C@@H](C)CC` (stereo partly drawn) (Ac-IEELIRAAQEQQRKNEEALRELK([PEG12-X2])-NH2): the EC50 in data set [1] is 0.16 nM; in data set [2] it was 1.01 nM; in [3] it was 14.8 nM; in data set [4], 1.24 nM; in [5] it was 2.97 nM; in data set [6], 0.99 nM. For the same compound, the Tm in data set [7] was 56 °C. Besides, the outcome in data set [8] was Active. Further, the K in data set [9] is 1.97 10^5/M. Also, the deltaH in [10] was -1.5 10^4cal/mol. The deltaS in [11] was -27.3 cal/mol/deg. Moreover, the IC50 in [12] amounted to 10.3 nM. For the same compound, the remaining at 4 h in data set [13] was over 72%. In addition, the Stability entry in data set [14] is “Stable”.
With Ac-IEELIRAAQEQQRKNEEALREL-NH2, the EC50 was 4.47 nM in data set [1]; 275 nM in data set [2]; over 250 nM in data set [3]; 76.5 nM in [4]; 63.1 nM in data set [5]; 3.7 nM in data set [6]. The K in data set [9] is 8.29 10^5/M. The deltaH in [10] was -1 10^4cal/mol. The deltaS in [11] is -6.92 cal/mol/deg. For the same compound, the IC50 in data set [12] was over 10000 nM.
enfuvirtide: the figures for the EC50 in data set [4], in data set [5] and in data set [6] were 24.6 nM, 48.2 nM and 2.54 nM, respectively. In addition, the remaining at 4 h in data set [13] stood at 45%.
